Source: ChEMBL document CHEMBL3734679, “Discovery of Azaindole Ureas as a Novel Class of Bacterial Gyrase B Inhibitors” (J Med Chem, 2015)
In brackets after ≈: the same amount, converted by molar mass.

How the values were obtained:
DNA gyrase subunit B = DNA gyrase subunit B (Staphylococcus aureus, UniProt P0A0K8); test: Inhibition of Staphylococcus aureus DNA GyraseB ATPase activity using linear pBR322 DNA as substrate incubated for 30 mins by fluorescence polarization analysis
Staphylococcus aureus [1] = test: Antibacterial activity against methicillin-susceptible Staphylococcus aureus 42 after 18 to 20 hrs by broth microdilution assay; type: functional
Staphylococcus aureus [2] = test: Antibacterial activity against methicillin-resistant Staphylococcus aureus 1118 after 18 to 20 hrs by broth microdilution assay; type: functional
Streptococcus pneumoniae = test: Antibacterial activity against Streptococcus pneumoniae after 18 to 20 hrs by broth microdilution assay; type: functional
Enterococcus faecium = test: Antibacterial activity against Enterococcus faecium after 18 to 20 hrs by broth microdilution assay; type: functional
Enterococcus faecalis = test: Antibacterial activity against Enterococcus faecalis after 18 to 20 hrs by broth microdilution assay; type: functional
Staphylococcus aureus [3] = test: Antibacterial activity against ciprofloxacin-resistant Staphylococcus aureus 1721 after 18 to 20 hrs by broth microdilution assay; type: functional

Chain of DNA gyrase subunit B (P0A0K8 whole entry): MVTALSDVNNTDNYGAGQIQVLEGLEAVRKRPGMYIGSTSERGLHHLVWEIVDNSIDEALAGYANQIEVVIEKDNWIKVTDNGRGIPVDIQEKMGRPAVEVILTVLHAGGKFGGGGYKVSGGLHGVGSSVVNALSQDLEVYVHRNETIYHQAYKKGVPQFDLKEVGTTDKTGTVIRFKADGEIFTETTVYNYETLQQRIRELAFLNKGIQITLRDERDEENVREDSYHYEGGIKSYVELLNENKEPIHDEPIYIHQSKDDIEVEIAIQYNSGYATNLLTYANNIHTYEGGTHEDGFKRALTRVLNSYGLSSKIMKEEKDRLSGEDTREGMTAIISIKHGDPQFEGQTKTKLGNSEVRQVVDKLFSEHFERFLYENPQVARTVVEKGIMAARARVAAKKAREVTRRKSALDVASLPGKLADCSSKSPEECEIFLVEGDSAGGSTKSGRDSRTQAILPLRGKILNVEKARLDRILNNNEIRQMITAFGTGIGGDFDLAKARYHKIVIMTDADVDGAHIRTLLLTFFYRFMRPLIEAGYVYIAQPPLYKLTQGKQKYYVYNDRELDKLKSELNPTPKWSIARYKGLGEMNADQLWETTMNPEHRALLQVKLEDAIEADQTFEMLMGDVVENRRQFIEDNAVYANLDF

Row | Compound | IC50 (DNA gyrase subunit B) [nM] | MIC (Staphylococcus aureus [1]) [µg/mL] | MIC (Staphylococcus aureus [2]) [µg/mL] | MIC (Streptococcus pneumoniae) [µg/mL] | MIC (Enterococcus faecium) [µg/mL] | MIC (Enterococcus faecalis) [µg/mL] | MIC (Staphylococcus aureus [3]) [µg/mL]
1 | CCNC(=O)Nc1cn(-c2ccccn2)c2cc(-c3cccnc3)cnc12 | 140 | 16 (≈ 44.6 µM) | 16 (≈ 44.6 µM) | 8 (≈ 22.3 µM) | 8 (≈ 22.3 µM) | 8 (≈ 22.3 µM) | –
2 | CCNC(=O)Nc1cn(-c2ncc(C)cn2)c2cc(-c3cccnc3)cnc12 | 64 | 4 (≈ 10.7 µM) | 4 (≈ 10.7 µM) | 4 (≈ 10.7 µM) | 4 (≈ 10.7 µM) | 1 (≈ 2.68 µM) | 4 (≈ 10.7 µM)
3 | CCNC(=O)Nc1cn(-c2ncc(Cl)cn2)c2cc(-c3cnc(C#N)nc3)cnc12 | 25 | > 32 | > 32 | > 32 | > 32 | > 32 | > 32
4 | CCNC(=O)Nc1cn(-c2ncc(C#N)cn2)c2cc(-c3cccnc3)cnc12 | 18 | > 32 | > 32 | > 32 | > 32 | > 32 | > 32
5 | CCNC(=O)Nc1cn(-c2ncccn2)c2cc(-c3cccnc3)cnc12 | < 79 | 8 (≈ 22.3 µM) | 8 (≈ 22.3 µM) | 4 (≈ 11.1 µM) | 8 (≈ 22.3 µM) | 2 (≈ 5.56 µM) | 16 (≈ 44.5 µM)
6 | CCNC(=O)Nc1cn(-c2ncc(Cl)cn2)c2cc(-c3cccnc3)cnc12 | 92 | 2 (≈ 5.08 µM) | 4 (≈ 10.2 µM) | 2 (≈ 5.08 µM) | 2 (≈ 5.08 µM) | 0.5 (≈ 1.27 µM) | 4 (≈ 10.2 µM)
7 | CCNC(=O)Nc1cn(-c2ncccc2C)c2cc(-c3cccnc3)cnc12 | 1900 | > 32 | > 32 | > 32 | > 32 | > 32 | > 32
8 | CCNC(=O)Nc1cn(C)c2cc(-c3cccnc3)cnc12 | 1800 | – | – | – | – | – | –
9 | CCNC(=O)Nc1cn(Cc2ccccc2)c2cc(-c3cccnc3)cnc12 | 3200 | – | – | – | – | – | –
10 | CCNC(=O)Nc1cn(-c2ncc(Br)cn2)c2cc(-c3ccn(C)c(=O)c3)cnc12 | 94 | 1 (≈ 2.14 µM) | 1 (≈ 2.14 µM) | 1 (≈ 2.14 µM) | 1 (≈ 2.14 µM) | – | 1 (≈ 2.14 µM)
11 | CCNC(=O)Nc1cn(C2CCN(C)CC2)c2cc(-c3cccnc3)cnc12 | 6420 | – | – | – | – | – | –
12 | CCNC(=O)Nc1cn(-c2ncc(F)cn2)c2cc(-c3cccnc3)cnc12 | 127 | 32 (≈ 84.8 µM) | 32 (≈ 84.8 µM) | 32 (≈ 84.8 µM) | 32 (≈ 84.8 µM) | 32 (≈ 84.8 µM) | > 32
13 | CCNC(=O)Nc1cn(-c2ncc(C(F)(F)F)cn2)c2cc(-c3cccnc3)cnc12 | > 100000 | > 32 | > 32 | > 32 | > 32 | > 32 | > 32
14 | C=CCn1cc(NC(=O)NCC)c2ncc(-c3cccnc3)cc21 | 430 | – | – | – | – | – | –
15 | CCNC(=O)Nc1cn(CC(O)CO)c2cc(-c3cccnc3)cnc12 (configuration not stated) | 1220 | – | – | – | – | – | –
16 | CCNC(=O)Nc1cn(C2C=CCCC2)c2cc(-c3cccnc3)cnc12 (configuration not stated) | 240 | – | – | – | – | – | –
17 | CCNC(=O)Nc1cn(C(=O)c2ccccn2)c2cc(-c3cccnc3)cnc12 | 1130 | – | – | – | – | – | –
18 | CCNC(=O)Nc1cn(-c2ncc(C)c(CCCC(=O)O)n2)c2cc(-c3cccnc3)cnc12 | 15 | 8 (≈ 17.4 µM) | 8 (≈ 17.4 µM) | 0.5 (≈ 1.09 µM) | 8 (≈ 17.4 µM) | – | 8 (≈ 17.4 µM)
19 | CCNC(=O)Nc1nc(/C=C/c2cccnc2)c(-c2ccc[nH]2)s1 | 5800 | – | – | – | – | – | –
20 | CCNC(=O)Nc1cn(-c2ncccn2)c2cc(-c3ccn(C)c(=O)c3)cnc12 | 12 | 2 (≈ 5.14 µM) | 2 (≈ 5.14 µM) | 2 (≈ 5.14 µM) | 4 (≈ 10.3 µM) | – | 4 (≈ 10.3 µM)

Row | Compound | IC50 (DNA gyrase subunit B) [nM] | MIC (Staphylococcus aureus [1]) [µg/mL] | MIC (Staphylococcus aureus [2]) [µg/mL] | MIC (Streptococcus pneumoniae) [µg/mL] | MIC (Enterococcus faecium) [µg/mL] | MIC (Enterococcus faecalis) [µg/mL] | MIC (Staphylococcus aureus [3]) [µg/mL]
21 | CCNC(=O)Nc1cn(-c2ncc(OC)cn2)c2cc(-c3cccnc3)cnc12 | 143 | 4 (≈ 10.3 µM) | 8 (≈ 20.5 µM) | 4 (≈ 10.3 µM) | 8 (≈ 20.5 µM) | 1 (≈ 2.57 µM) | 8 (≈ 20.5 µM)
22 | CCNC(=O)Nc1cn(-c2ncccn2)c2cc(-n3cnc(C(=O)NC4CC4)c3)cnc12 | 10 | 4 (≈ 9.27 µM) | 4 (≈ 9.27 µM) | 2 (≈ 4.64 µM) | 8 (≈ 18.5 µM) | – | 4 (≈ 9.27 µM)
23 | CCNC(=O)Nc1cn(-c2nccc(C)n2)c2cc(-c3cccnc3)cnc12 | 140 | > 32 | > 32 | 4 (≈ 10.7 µM) | 2 (≈ 5.36 µM) | 1 (≈ 2.68 µM) | > 32
24 | CCNC(=O)Nc1cn(-c2ncc(CC)cn2)c2cc(-c3ccn(C)c(=O)c3)cnc12 | 71 | 1 (≈ 2.4 µM) | 1 (≈ 2.4 µM) | 0.25 (≈ 0.599 µM) | 0.25 (≈ 0.599 µM) | – | 1 (≈ 2.4 µM)
25 | CCNC(=O)Nc1cn(-c2ncc(Br)cn2)c2cc(-c3cccnc3)cnc12 | 128 | 1 (≈ 2.28 µM) | 2 (≈ 4.56 µM) | 1 (≈ 2.28 µM) | 2 (≈ 4.56 µM) | 0.25 (≈ 0.57 µM) | 2 (≈ 4.56 µM)
26 | CCNC(=O)Nc1cn(CCOC)c2cc(-c3cccnc3)cnc12 | 2400 | – | – | – | – | – | –
27 | C=CC(=O)n1cc(NC(=O)NCC)c2ncc(-c3cccnc3)cc21 | 280 | – | – | – | – | – | –
28 | CCNC(=O)Nc1cn(C2CCN(C)C2=O)c2cc(-c3cccnc3)cnc12 (configuration not stated) | 5290 | – | – | – | – | – | –
29 | CCNC(=O)Nc1cn(-c2nccc(CCO)n2)c2cc(-c3cccnc3)cnc12 | 9 | 32 (≈ 79.3 µM) | 32 (≈ 79.3 µM) | 8 (≈ 19.8 µM) | 16 (≈ 39.7 µM) | – | 32 (≈ 79.3 µM)
30 | CCNC(=O)Nc1cn(-c2ncc(Cl)cn2)c2cc(-c3ccn(C)c(=O)c3)cnc12 | 262 | 1 (≈ 2.36 µM) | 1 (≈ 2.36 µM) | 1 (≈ 2.36 µM) | 2 (≈ 4.72 µM) | – | 2 (≈ 4.72 µM)
31 | CCNC(=O)Nc1cn(-c2ncc(Br)cn2)c2cc(-c3ccn(CCO)c(=O)c3)cnc12 | 8 | 8 (≈ 16.1 µM) | 8 (≈ 16.1 µM) | 8 (≈ 16.1 µM) | 8 (≈ 16.1 µM) | – | 8 (≈ 16.1 µM)
32 | CCNC(=O)Nc1cn(C2CCCCC2)c2cc(-c3cccnc3)cnc12 | 350 | – | – | – | – | – | –
33 | CCNC(=O)Nc1cn(-c2ncc(Cl)cn2)c2cc(-c3cccnc3F)cnc12 | 6060 | > 32 | > 32 | > 32 | > 32 | > 32 | > 32
34 | CCNC(=O)Nc1cn(-c2ncc(C)cn2)c2cc(-c3ccn(C)c(=O)c3)cnc12 | 13 | > 32 | > 32 | 4 (≈ 9.91 µM) | > 32 | 0.5 (≈ 1.24 µM) | > 32
35 | CCNC(=O)Nc1nc(CO)c(-c2ccc[nH]2)s1 | 2500 | 128 (≈ 481 µM) | – | 16 (≈ 60.1 µM) | – | – | –
36 | CCNC(=O)Nc1cn(-c2ncc(C)c(CCC(=O)O)n2)c2cc(-c3cccnc3)cnc12 | 48 | > 32 | > 32 | 1 (≈ 2.24 µM) | > 32 | – | > 32
37 | CCNC(=O)Nc1c[nH]c2cc(-c3cccnc3)cnc12 | 6500 | > 32 | > 32 | > 32 | > 32 | > 32 | > 32
38 | CCNC(=O)Nc1cn(-c2ncc(CC)cn2)c2cc(-c3cccnc3)cnc12 | 46 | 16 (≈ 41.3 µM) | 16 (≈ 41.3 µM) | 16 (≈ 41.3 µM) | 16 (≈ 41.3 µM) | 8 (≈ 20.6 µM) | 16 (≈ 41.3 µM)
39 | CCNC(=O)Nc1cn(-c2nccc(CCCO)n2)c2cc(-c3cccnc3)cnc12 | 42 | 32 (≈ 76.7 µM) | 32 (≈ 76.7 µM) | 4 (≈ 9.58 µM) | 4 (≈ 9.58 µM) | 0.5 (≈ 1.2 µM) | 32 (≈ 76.7 µM)
